Source: patent publication US7622476B2, “Methods of using 1-allyl ergot alkaloid derivatives to treat migraines” (priority 2002, dated 2009)
Where two headings read alike, the source gives them in different places. Marks after values point to notes of the source that are not given here.

Tests used:
5-HT2B receptors = assay: Function test based on 5-HT2B receptor tissue (pig pulmonary artery, 5-HT-induced relaxation); assay type: cell-based; conditions: for 5-HT2B pA2 value: antagonism of 5-HT-induced relaxation, antagonist conc. (nM)
Procedure: The test was an in vitro function test to characterize 5-HT2B receptors in a pig's pulmonary artery. The pig's pulmonary artery was prepared as follows: Small branches were dissected from the pulmonary artery and cautiously freed of organ tissue and connective tissue. Up to six rings of the artery (length 2-3 mm and width 1.5-2 mm) were hung in horizontal orientation between two L-shaped platinum hooks (150 μm in diameter) and fixed in an organ bath containing 10 ml of modified Krebs-Henseleit buffer composed as follows: 118 mM NaCl, 4.7 mM KCl, 2.5 mM CaCl2, 1.2 mM MgSO4, 1.2 mM KH2PO4, 25 mM NaHCO3, and 11 mM D-glucose. A continuous flow of a gas mixture of 95% O2 and 5% CO2 passed through the solution which was kept at a constant temperature of 35° C. The preparations were connected to an isometric power converter (Hugo Sachs Elektronik, March, Germany), and voltage changes were continuously recorded. The constant voltage in stationary condition was adjusted to 20 mN at the beginning of each experiment. During an initial stabilization period of 60 minutes, the bath medium was replaced every 20 minutes and the voltage was repeatedly adjusted to 20 mN. The artery preparations were stimulated at 45-minute intervals once with KCl (30 mM) and three times with prostaglandin-F2α (PGF2α, 3 μM) until the response by contraction was visible. The undamaged condition of the endothelium was evaluated functionally by measuring the extent of endothelium-dependent relaxation following application of bradykinin (10 nM). After the third PGF2α-induced contraction had stabilized, the relaxation response was examined for 5-HT by determining a cumulative concentration-response curve in the absence and presence of the antagonist. […].
The relaxation response to the test compound was examined using the same method as with 5-HT to test for agonistic activity. The concentration of the agonist was increased in increments at the time when the response signal had reached a plateau. The plateau was typically reached within 2 to 4 minutes. The relaxation effects were expressed as a percentage of the PGF2α-induced contraction. The antagonists were added 30 minutes before the recording of the agonist concentration response curves started. The effects of the antagonists were examined in ring segments that were adjacent to the reference segments.

5-HT2A receptors [1] = target: T1, 5-HT2A receptors (Rattus norvegicus, UniProt P14842); assay: Function test based on 5-HT2A receptor tissue (rat caudal artery, 5-HT concentration-response curves); assay type: cell-based; conditions: for 5-HT2A pA2 value: rat caudal artery without endothelium, antagonism of 5-HT, antagonist conc. (nM)
T1 construct: characterizing 5-HT2A receptors in rat's caudal arteries; from tissue; host or cells: rat anterior caudal artery segments, endothelium stripped (male Wistar rats)
Source text: The example below describes an in-vitro function test for characterizing 5-HT2A receptors in rat's caudal arteries.
Male Wistar rats (250-300 g) were killed by suffocation. The anterior caudal artery was dissected fast and cleared of attached connective tissue. A stainless steel wire (0.3 mm in diameter) was introduced into the artery to strip off the endothelium. […] A continuous flow of a gas mixture of 95% O2 and 5% CO2 passed through the solution which was kept at a constant temperature of 37° C. […] The constant voltage was adjusted to 5 mN at the beginning of each experiment. During an equilibrium period of 120 minutes, the preparations were stimulated once after 60 minutes with 5-HT (1 μM).
Three cumulative concentration-response curves (CRC) were determined for each artery segment in these experiments for the study of partial agonists. The first CRC was obtained for 5-HT, the second that followed 60 minutes later for the partial agonist. Finally, the third CRC was obtained 10-15 minutes after the second CRC without washing with 5-HT and using the highest agonist concentration (0.3-3 μM). Additional experiments determined two CRCs at an interval of 60 minutes as described above. The first CRC was determined for 5-HT. The second CRC was determined to test the partial agonist in the presence of ketanserin. The preparations were incubated for 30 minutes with a ketanserin solution (3 nM).
The axial shift to the right of the curves determined in the presence of ketanserin was compared to the shift determined for the respective control preparation in the absence of ketanserin. In these experiments using ketanserin, two separate CRCs to 5-HT were obtained from each artery segment at a 90-minute interval. For the antagonists, the preparations were incubated 60 minutes prior to determining the second curve. Prazosin (0.1 μM) and cocaine (6 μM) were present in the solution during these experiments to block the α1-adrenoceptors and neuronal absorption of 5-HT.

5-HT2A receptors [2] = target: T1, 5-HT2A receptors; conditions: reference compounds marked *; values from H. Pertz (1996) Planta Med. 62, pp. 387-392; cited from earlier work

T1 sequence (P14842 whole entry): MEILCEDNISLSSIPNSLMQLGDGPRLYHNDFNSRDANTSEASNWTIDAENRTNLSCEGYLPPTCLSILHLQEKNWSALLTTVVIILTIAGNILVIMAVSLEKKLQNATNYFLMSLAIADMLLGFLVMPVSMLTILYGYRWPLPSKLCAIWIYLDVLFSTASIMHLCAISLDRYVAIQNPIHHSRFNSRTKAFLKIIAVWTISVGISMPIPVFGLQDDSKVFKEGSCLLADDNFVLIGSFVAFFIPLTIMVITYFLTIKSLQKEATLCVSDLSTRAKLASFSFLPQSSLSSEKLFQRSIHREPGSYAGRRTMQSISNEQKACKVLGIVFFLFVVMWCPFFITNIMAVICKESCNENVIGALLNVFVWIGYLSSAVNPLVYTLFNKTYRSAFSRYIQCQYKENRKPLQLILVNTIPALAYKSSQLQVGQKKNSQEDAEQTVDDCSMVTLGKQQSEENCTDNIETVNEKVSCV

SMILES | 5-HT2B pA2 value (5-HT2B receptors) | further results
C=CCn1cc2c3c(cccc31)[C@H]1C[C@@H](C(=O)N[C@]3(C)O[C@@]4(O)C5CCCN5C(=O)[C@H](Cc5ccccc5)N4C3=O)CN(C)[C@@H]1C2 (stereo partly shown) [1-Allyl dihydroergotamine] | 9.30 | –
C=CCn1cc2c3c(cccc31)C1=C[C@@H](C(=O)N[C@]3(C)O[C@@]4(O)C5CCCN5C(=O)[C@H](Cc5ccccc5)N4C3=O)CN(C)[C@@H]1C2 (stereo partly shown) [1-Allyl ergotamine] | – | 5-HT2B -logKp, calculated according to Kenakin (5-HT2B receptors; printed in the pA2 column, marked **): 9.11**
C=CCn1cc2c3c(cccc31)[C@H]1C[C@@H](C)CN(C)[C@@H]1C2 [1-Allyl festuclavine] | 6.74 | 5-HT2A pA2 value (5-HT2A receptors [1]): 7.89
C=CCn1cc2c3c(cccc31)C1=CC(NC(=O)N(CC)CC)CN(C)C1C2 (stereo not shown) [1-Allyl lisuride] | 8.17 | –
C=CCn1cc2c3c(cccc31)[C@@H]1C[C@H](NC(=O)N(CC)CC)CN(C)[C@H]1C2 [1-Allyl terguride, 1-allyl-(5R,8S,10R)-terguride] | 7.67 | Kb (5-HT2A receptors [1]): 2 nM
C=CCn1cc2c3c(cccc31)C1=C[C@@H](CO)CN(C)[C@@H]1C2 [1-Allyl-lysergol, 1-Allyl lysergol] | 7.61 | Kb (5-HT2A receptors [1]): 3.55 nM
CCN(CC)C(=O)N[C@H]1C=C2c3cccc4[nH]cc(c34)C[C@H]2N(C)C1 [Lisuride, reference compound] | 10.32 | –
CN1C[C@H](CO)C=C2c3cccc4[nH]cc(c34)C[C@H]21 [Lysergol] | – | 5-HT2A pA2 value (5-HT2A receptors [2]): 6.88
CCN(CC)C(=O)N[C@H]1C[C@@H]2c3cccc4[nH]cc(c34)C[C@H]2N(C)C1 [Terguride, reference compound] | 8.49 | 5-HT2A pA2 value (5-HT2A receptors [1]): 8.38
